In patent publication US10329278B2, “Pharmaceutical compounds” (Heptares Therapeutics Limited, priority 2017, dated 2019):
Values joined by “and” are separate entries in the source; they are usually repeats but may differ in a detail not shown here. Equal values may be shown once. Read-outs that look alike come from different tables or passages of the source.

Assays:
[1] = molecular target: T1, human muscarinic M4 receptor (Homo sapiens, UniProt P08173); assay: Alphascreen Surefire phospho-ERK1/2 functional assay, M4; assay type: cell-based; details: for EC50 / % Emax cf. ACh (M4) / pEC50 M4: CHO cells stably expressing human M4; for EC50 / pEC50 M4: agonist 5 min, 37° C.; for EC50: read-out: pEC50 M4 (converted); for Emax: CHO
T1 construct: expressed in transfected cells
T1 sequence (P08173 1-479): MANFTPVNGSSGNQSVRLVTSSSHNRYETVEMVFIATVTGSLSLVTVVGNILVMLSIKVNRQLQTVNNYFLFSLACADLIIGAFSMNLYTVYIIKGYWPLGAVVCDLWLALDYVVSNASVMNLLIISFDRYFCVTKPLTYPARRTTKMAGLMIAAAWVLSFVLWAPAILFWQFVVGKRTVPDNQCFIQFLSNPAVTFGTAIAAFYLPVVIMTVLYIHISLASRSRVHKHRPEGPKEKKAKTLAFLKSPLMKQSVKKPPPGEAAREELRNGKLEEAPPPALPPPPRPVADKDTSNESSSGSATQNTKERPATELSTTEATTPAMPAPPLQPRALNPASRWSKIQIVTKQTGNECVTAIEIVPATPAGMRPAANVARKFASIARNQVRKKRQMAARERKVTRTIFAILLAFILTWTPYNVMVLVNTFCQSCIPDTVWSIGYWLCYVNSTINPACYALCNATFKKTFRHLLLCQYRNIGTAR
Protocol: (§1) ERK1/2 phosphorylation is a downstream consequence of both Gq/11 and Gi/o protein coupled receptor activation, making it highly suitable for the assessment of M1, M3 (Gq/11 coupled) and M2, M4 receptors (Gi/o coupled), rather than using different assay formats for different receptor subtypes. CHO cells stably expressing the human muscarinic M1, M2, M3 or M4 receptor were plated (25K/well) onto 96-well tissue culture plates in MEM-alpha+10% dialysed FBS. Once adhered, cells were serum-starved overnight. Agonist stimulation was performed by the addition of 5 μL agonist to the cells for 5 min (37° C.). Media was removed and 50 μL of lysis buffer added. After 15 min, a 4 μL sample was transferred to 384-well plate and 7 μL of detection mixture added.

[2] = molecular target: T2, human muscarinic M1 receptor (Homo sapiens, UniProt P11229); assay: Alphascreen Surefire phospho-ERK1/2 functional assay, M1; assay type: cell-based; details: for EC50 / % Emax cf. ACh (M1) / pEC50 M1: CHO cells stably expressing human M1; for EC50 / pEC50 M1: agonist 5 min, 37° C.; for EC50: read-out: pEC50 M1 (converted); for Emax: CHO, read-out: % Emax cf. ACh (M1), CHO cells stably expressing human M1; for Emax / % Emax cf. ACh (M1): relative to ACh
T2 sequence (P11229 1-460): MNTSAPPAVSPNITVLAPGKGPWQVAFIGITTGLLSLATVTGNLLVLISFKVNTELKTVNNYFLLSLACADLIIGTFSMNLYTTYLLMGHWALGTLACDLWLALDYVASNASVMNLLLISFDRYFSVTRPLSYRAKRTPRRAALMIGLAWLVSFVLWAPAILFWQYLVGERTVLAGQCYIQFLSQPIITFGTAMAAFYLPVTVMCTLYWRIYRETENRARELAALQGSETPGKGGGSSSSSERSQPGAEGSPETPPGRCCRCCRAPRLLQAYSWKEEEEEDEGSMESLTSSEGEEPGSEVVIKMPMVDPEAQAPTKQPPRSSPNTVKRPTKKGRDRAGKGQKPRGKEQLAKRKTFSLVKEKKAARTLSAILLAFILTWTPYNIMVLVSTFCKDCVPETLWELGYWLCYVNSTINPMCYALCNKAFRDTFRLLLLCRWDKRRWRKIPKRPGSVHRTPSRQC
Protocol: as §1

[3] = read-out: % Emax cf. ACh (M4), CHO cells stably expressing human M4, relative to ACh

Row | Structure (SMILES) | EC50 [1] | Emax [1, 3] | EC50 [2] | Emax [2] | % Emax cf. ACh (M1) [2] | % Emax cf. ACh (M4) ([1]; relative to ACh) | pEC50 M4 [1] | pEC50 M1 [2] | Emax ([1]; read-out: % Emax cf. ACh (M4))
1 | CCOC(=O)N1CCC2(CC(N3CC4C(C3)C4N(CC)CC(F)(F)F)C2)C1 (mixture of isomers) [2-27 Mixture of isomers] | 1480 nM | 32% | > 20000 nM | 20% |  |  |  |  | 
2 | CCOC(=O)N1CCC2(CC(N3CC4C(C3)C4C(CC)=NOC)C2)C1 (single isomer, unassigned) [2-25 Isomer 2] | 437 nM | 35% | 1290 nM |  | 37% |  |  |  | 
3 | CCOC(=O)N1CCC2(CC(N3CC4C(C3)C4OC(C)c3ccccc3)C2)C1 (single isomer, unassigned) [2-28 Isomer 1] | > 20000 nM |  | 575 nM |  | 58% | 21% |  |  | 
4 | CCOC(=O)N1C2CCC1CC(N1CC3C(C1)C3C(=O)N(C)CC)C2 (single isomer, unassigned; isomer 1) [7-2 Isomer 1] |  |  |  |  | 116% | 14% | < 4.70 | 6.11 | 
5 | CCOC(=O)N1C2CCC1CC(N1CC3C(C1)C3C(=O)N(CC)CC)C2 (single isomer, unassigned; isomer 1) [7-3 Isomer 1] |  |  |  |  | 123% | 45% | 5.58 | 6.78 | 
6 | CCOC(=O)N1C2CCCC1CC(N1CC3C(C1)C3C(=O)N(CC)CC)C2 (single isomer, unassigned; isomer 1) [9-2 Isomer 1] |  |  |  |  | 102% | 41% | 5.87 | 6.56 | 
7 | CCN(CC)C(=O)C1C2CN(C3CC4CCCC(C3)N4C(=O)OC)CC21 (single isomer, unassigned; isomer 1) [9-3 Isomer 1] |  |  |  |  | 106% | 60% | 6.12 | 6.40 | 
8 | CCOC(=O)N1C2COCC1CC(N1CC3C(C1)C3C(=O)N(C)CC)C2 (single isomer, unassigned; isomer 1) [10-1 Isomer 1] |  |  |  |  | 110% and 78% | 24% and 15% | < 4.70 | 5.94 and 5.76 | 
9 | COC(=O)N1C2COCC1CC(N1CC3C(C1)C3C(=O)N(C)C(C)C)C2 (single isomer, unassigned; isomer 1) [10-5 Isomer 1] |  |  |  |  | 99% | 81% | 5.91 | 6.30 | 
10 | CCN(C(=O)C1C2CN(C3CC4COCC(C3)N4C(=O)OC)CC21)C(C)C (single isomer, unassigned; isomer 1) [10-7 Isomer 1] |  |  |  |  | 99% | 69% | 6.79 | 7.42 | 
11 | CCOC(=O)N1C2COCC1CC(N1CC3C(C1)C3C(=O)N(C)C1CC1)C2 (single isomer, unassigned; isomer 1) [10-8 Isomer 1] |  |  |  |  | 116% | 47% | 4.84 | 5.99 | 
12 | CCOC(=O)C1C2CN(C3CC4CCC(C3)N4C(=O)OCC)CC21 (single isomer, unassigned; isomer 2) [7-1 Isomer 2] |  |  |  |  | 83% | 62% | 5.80 | 5.67 | 
13 | CCOC(=O)N1C2CCC1CC(N1CC3C(C1)C3C(=O)N(C)CC)C2 (single isomer, unassigned; isomer 2) [7-2 Isomer 2] |  |  |  |  | 113% | 53% | 4.96 | 6.66 | 
14 | CCOC(=O)N1C2CCC1CC(N1CC3C(CN(CC)C(C)=O)C3C1)C2 (single isomer, unassigned; isomer 2) [7-5 Isomer 2] |  |  |  |  | 23% | 38% | 6.13 | < 4.70 | 
15 | CCOC(=O)N1C2CCC1CC(N1CC3C(C1)C3c1csc(C)n1)C2 (single isomer, unassigned; isomer 2) [7-6 Isomer 2] |  |  |  |  | 56% | 73% | 6.21 | 5.94 | 
16 | CCOC(=O)N1C2CCCC1CC(N1CC3C(C1)C3C(=O)N(C)CC)C2 (single isomer, unassigned; isomer 2) [9-1 Isomer 2] |  |  |  |  | 93% | 24% | < 4.70 | 6.01 | 
17 | CCN(CC)C(=O)C1C2CN(C3CC4COCC(C3)N4C(=O)OC)CC21 (single isomer, unassigned; isomer 2) [10-3 Isomer 2] |  |  |  |  | 81% | 25% | < 4.70 | 5.75 | 
18 | COC(=O)N1C2COCC1CC(N1CC3C(C1)C3C(=O)N(C)C(C)C)C2 (single isomer, unassigned; isomer 2) [10-5 Isomer 2] |  |  |  |  | 101% | 90% | 4.90 | 5.66 | 
19 | CCN(C(=O)C1C2CN(C3CC4COCC(C3)N4C(=O)OC)CC21)C(C)C (single isomer, unassigned; isomer 2) [10-7 Isomer 2] |  |  |  |  | 100% | 64% | 6.23 | 6.83 | 
20 | CCOC(=O)N1C2COCC1CC(N1CC3C(C1)C3C(=O)N(C)C1CC1)C2 (single isomer, unassigned; isomer 2) [10-8 Isomer 2] |  |  |  |  | 85% | 32% | 5.67 | 5.65 | 
21 | CCOC(=O)N1C2COCC1CC(N1CC3C(C1)C3C(=O)N(CC)C1CC1)C2 (single isomer, unassigned; isomer 2) [10-9 Isomer 2] |  |  |  |  | 105% | 38% | 5.47 | 6.57 | 
22 | COC(=O)N1C2COCC1CC(N1CC3C(C1)C3C(=O)N1CCCCC1)C2 (single isomer, unassigned; isomer 2) [10-12 Isomer 2] |  |  |  |  | 99% | 86% | 4.85 | 5.99 | 
23 | CC(=O)OCC[N+](C)(C)C [ACh, acetylcholine, reference compound] |  |  |  |  |  |  |  |  | 109%
24 | CCOC(=O)N1CC2(CC(N3C[C@@H]4[C@H](C3)[C@H]4C(=O)N(CC)CC)C2)C1 [Example 1-2, ethyl 6-[(1R,5S,6r)-6-(diethylcarbamoyl)-3-azabicyclo[3.1.0]hex-3-yl]-2-azaspiro[3.3]heptane-2-carboxylate] | 955 nM | 81% | 132 nM | 110% |  |  |  |  | 
